# Results: patent US7867948B2, “Use of guanidine compounds as physiological strengthening agents in the form of nutritional supplements, animal feed additives, in cosmetic preparations and as plant stimulants” (Alzchem Trostberg GmbH, priority 2004, dated 2011)
# Tests used:
# [1] = tested on: rats; conditions: experiments of GB 1 468 998; cited from earlier work
# [2] = tested on: chickens raised for market; assay: Feed for chickens raised for market (feed additive trial); format: in vivo; design: dose or concentration left out as unconfirmed; conditions: 0.2 wt.-% added to air-dried food
# Experimental: 2. Animal Feed Additive • 2.1 A formulation consisting of 5,000 mg creatinol-O -phosphate and 5,000 mg inulin was added to a typical formula for feed pellets as a food supplement for horses. • 2.2 A formulation consisting of 7,000 mg creatinol sulfate, 750 mg carnitine tartrate, 100 mg sucrose stearate, 160 mg talc, and 1,090 mg fructose was added to the base mixture for making dog biscuits. • 2.3 As a master batch, the following formulation was added to a regular commercial canned cat food mixture: 3,000 mg creatinol sulfate, 3,000 mg creatine, 40 mg magnesium stearate, 25 mg carboxymethylcellulose and 135 mg lactose. • 2.4 Feed for chickens raised for market
# In addition the feed consumption was about 2 to 3% less than in former feeding methods.
# [3] = after administration; Arzneimittelforschung 1979, 29 (9A) 1477-79; cited from earlier work
SMILES,swimming activity increased [1] [%],meat quality ([2]; 41 days feeding time),increase in the final weight versus former feeding methods without addition of creatinol ([2]; after 41 days feeding time) [%],creatinine levels in the urine [3]
CN(CCO)C(=N)N.NC(CC(=O)O)C(=O)O (stereo not shown) [creatinol aspartate],30,–,–,–
CN(CCOP(=O)(O)O)C(=N)N [creatinol-O-phosphate],–,improved quality,4,increase
